The subject of this assay is Female C57BL/6 mice. The experiment in a line: Test for hair growth promoting effect: hair regrowth on shaved backs of mice. The assay is classed as in vivo. The following applies: shaved back, 100 μl (conc. 0.1% w/v) applied once a day for 30 days, visual approach. The method, then: Female C57BL/6 mice of ages 6 to 7 weeks were utilized. After removing hairs on the middle of the back with an electric shaver, the mice were weighed and randomly assigned to the test groups with an even distribution of weights. The mice were given one day for adaptation. From the next day, mice were applied once a day on their backs with cyclosporin A and the cyclosporin A derivatives (Compounds 1 to 7) prepared by HPLC in Example 1 in amounts of 100 μl (conc. 0.1% w/v) for 30 days. The results were determined by visual approach, in terms of degrees of hair regrowth. With respect to respective hair-removed areas, rates of new hair growth were examined and compared.
Consider “[D-2-(methylamino)hexa-4-ynoyl^3] cyclosporin A [Compound 3]”, for which the “Area rate of hair regrowth (%)” value came to 95%. The figure for “[D-2-(methylamino)pent-4-ynoyl^3] cyclosporin A [Compound 4]” is 96%. The figure for “[D-2-(methylthio)-Sar^3] cyclosporin A [Compound 5]” is 93%; for “[N-methyl-D-Abu3] cyclosporin A [Compound 1]” it is 95%; for “[N-methyl-D-Nva^3] cyclosporin A [Compound 2]” it is 91%. Take “[N-methyl-D-Ser^3] cyclosporin A [Compound 7]”: the “Area rate of hair regrowth (%)” value is listed as 90%. With “[N-methyl-O-propenyl-D-Ser^3] cyclosporin A [Compound 6]”, the “Area rate of hair regrowth (%)” value amounted to 94%. Take cyclosporin A [reference compound]: the “Area rate of hair regrowth (%)” value is reported as 91%.

Source of the values: patent US6762164B2, “Use of 3-position cyclosporin derivatives for hair growth” (LG Household & Health Care Ltd., priority 2001, dated 2004).
